Assay results taken from patent US9944654B2, “Nargenicin compounds and uses thereof as antibacterial agents” (priority 2014, dated 2018).
Values after ≈ are worked out from the molar mass of the structure shown. Like-named read-outs stand apart in the source and are kept apart here.

Assays:
[1] = test system: Streptococcus pneumoniae MB6357 (CL 2883); test: Nargenicin antibacterial assay (MIC), S. pneumoniae; assay type: cell-based; settings: for MIC: Streptococcus pneumoniae
[2] = target: T1, E. coli DnaE (DNA polymerase III α-subunit from Escherichia coli) (Escherichia coli, UniProt P10443); test: In vitro DnaE single enzyme assay (E. coli); assay type: biochemical
T1 construct: EcDnaE (E. coli DnaE residues 1-1160); 6xHis (N); made in house; host or cells: E. coli BL21(DE3)
Description: (§1) Plasmids encoding EcDnaE (E. coli DnaE residues 1-1160) and SaDnaE (S. aureus DnaE residues 1-1065) with 6×His N-terminal tags, were overexpressed in BL21(DE3) and BL21-AI cells (Invitrogen), respectively. Cells were grown in LB media to an OD ˜0.45 pelleted and then resuspended in Minimal Media, as described in Pryor et al. (1997, Protein Expr Purif. 10:309-19), and inducer (0.4 mM IPTG or 0.2% arabinose) for 21 hours at 18° C. at 220 rpm. Cells were then harvested, frozen for 20 minutes at −80° C. and thawed. Pellets were resuspended in 1× Talon buffer (50 mM Sodium Phosphate, 300 mM Sodium Chloride, pH 7.4) +10% glycerol +Roche PI's (-EDTA). Cells were lysed with two passes through a French press, then centrifuged for 45 minutes at 40,000 rpm (70Ti, Beckman). Supernatant was bound to 5 mL TALON resin (CLONTECH) for 1 hour at room temperature on Nutator. TALON resin was washed with 10 mM imidizole, and DnaE was eluted with 250 mM imidizole. Eluate was concentrated and run on a size exclusion column (SEC200, GE Healthcare) in the following buffer; 25 mM HEPES, 30 mM NaCl,1 mM CaCl2, 5% glycerol, pH 7.9. Pool SEC fractions based on SDS-PAGE run, aliquot, freeze, and store at -80° C.
(§2) DnaE was diluted in 50 mM potassium phosphate pH 7.5, 5 mM BME, 10% glycerol and 200 mM NaCl prior to use.
(§3) The purpose of the DnaE single enzyme assay is to determine the ability of compounds to inhibit the DNA polymerase III α-subunit homolog from Staphylococcus aureus or the α-subunit from Escherichia coli without the other components of the replication machinery. The DnaE single enzyme assay was a modified version of the method, Standard Pol III Assay Using Activated DNA and Four dNTPs, described by Butler et al., 2008, Methods in Molecular Medicine: New Antibiotic Targets 142:25-36. Briefly, in 96-well plates, enzyme was added to a mixture containing 30 mM Tris-HCl pH 7.5, 20% glycerol, 4 mM DTT, 10 mM Mg acetate, 0.025 mM dATP, 0.025 mM dGTP, 0.025 mM dc:TP, 0.011 mM ^3H-dTTP 1 mCi/ml (Perkin-Elmer), and 0.298 mg/mL Dnase I (Sigma) treated “activated” Calf Thymus DNA (Worthington Biochemical). The assay was set up so that 5 μl of compound was distributed to the plates, 90 μl of reaction mix was added to the compound, and 5 μl of enzyme was added to start the reaction. Assays were initiated by the addition of 0.8 μg/ml E. coli or 0.05 μg/ml S. aureus DnaE, incubated for 30 min at 30° C., and terminated by the addition of a 20% trichloroacetic acid and 0.2% sodium pyrophosphate solution. Precipitated labeled DNA was collected on Glass-fiber Filtermat A using Micro96 Harvester, and the filters were washed, dried, and counted in a Microbeta Trilux (Perkin Elmer). Serial dilutions of compounds (in DMSO) were added to the plates before enzyme addition.

[3] = test system: Escherichia coli MB5747 (LS 883, tolC); test: microbe, parasite or virus in culture; assay type: cell-based; settings: * = some reduction of growth versus control at […]; for MIC: Escherichia coli, read-out: E. coli LS883 tolC (MIC), MHII broth
[4] = target: T2, S. aureus DnaE (DNA polymerase III α-subunit homolog from Staphylococcus aureus) (Staphylococcus aureus, UniProt Q5HF71); test: biochemical; assay type: biochemical
T2 construct: SaDnaE (S. aureus DnaE residues 1-1065); 6xHis (N); made in house; host or cells: E. coli BL21-AI
T2 sequence (Q5HF71 1-1065): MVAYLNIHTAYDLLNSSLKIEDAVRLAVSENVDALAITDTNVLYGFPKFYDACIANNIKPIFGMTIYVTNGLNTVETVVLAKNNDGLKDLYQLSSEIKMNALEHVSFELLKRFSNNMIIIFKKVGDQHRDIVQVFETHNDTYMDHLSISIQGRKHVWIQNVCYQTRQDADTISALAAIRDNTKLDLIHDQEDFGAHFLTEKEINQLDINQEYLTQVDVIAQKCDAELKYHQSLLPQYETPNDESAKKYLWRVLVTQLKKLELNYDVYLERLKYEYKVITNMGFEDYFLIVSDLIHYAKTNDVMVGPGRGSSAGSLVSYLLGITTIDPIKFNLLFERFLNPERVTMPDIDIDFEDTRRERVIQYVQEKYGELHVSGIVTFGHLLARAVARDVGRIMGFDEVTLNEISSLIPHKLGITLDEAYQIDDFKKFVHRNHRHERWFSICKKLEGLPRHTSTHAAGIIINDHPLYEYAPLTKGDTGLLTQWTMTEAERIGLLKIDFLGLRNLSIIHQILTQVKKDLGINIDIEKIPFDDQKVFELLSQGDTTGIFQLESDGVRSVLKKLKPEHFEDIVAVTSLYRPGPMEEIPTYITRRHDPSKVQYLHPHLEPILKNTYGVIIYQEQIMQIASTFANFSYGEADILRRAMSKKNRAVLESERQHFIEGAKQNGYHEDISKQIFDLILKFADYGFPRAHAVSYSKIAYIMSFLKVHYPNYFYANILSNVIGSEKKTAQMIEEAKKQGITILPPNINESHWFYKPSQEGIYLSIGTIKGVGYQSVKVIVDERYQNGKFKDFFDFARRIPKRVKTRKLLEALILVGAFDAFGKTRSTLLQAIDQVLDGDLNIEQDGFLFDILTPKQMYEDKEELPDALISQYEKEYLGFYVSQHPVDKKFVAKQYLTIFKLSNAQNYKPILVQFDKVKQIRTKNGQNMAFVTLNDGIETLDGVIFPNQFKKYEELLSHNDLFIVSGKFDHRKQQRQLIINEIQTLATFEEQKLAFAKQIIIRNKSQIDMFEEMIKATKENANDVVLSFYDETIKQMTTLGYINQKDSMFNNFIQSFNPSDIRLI
Description: as §1, §2, §3

[5] = test system: Pseudomonas aeruginosa MB5890 (CB1101, efflux-deleted); test: microbe, parasite or virus in culture; assay type: cell-based; settings: * = some reduction of growth versus control at […]; for MIC: Pseudomonas aeruginosa, read-out: P. aeruginosa MB5890 efflux-del (MIC), MHII broth
[6] = read-out: S. pneumoniae MB2883 (MIC)
[7] = read-out: S. aureus DnaE IC50 (converted)
[8] = read-out: S. pneumoniae MB2883 (MIC), Isosensitest broth, * = some reduction of growth versus control at […]

T1 sequence (P10443 whole entry, the tested form may be a part): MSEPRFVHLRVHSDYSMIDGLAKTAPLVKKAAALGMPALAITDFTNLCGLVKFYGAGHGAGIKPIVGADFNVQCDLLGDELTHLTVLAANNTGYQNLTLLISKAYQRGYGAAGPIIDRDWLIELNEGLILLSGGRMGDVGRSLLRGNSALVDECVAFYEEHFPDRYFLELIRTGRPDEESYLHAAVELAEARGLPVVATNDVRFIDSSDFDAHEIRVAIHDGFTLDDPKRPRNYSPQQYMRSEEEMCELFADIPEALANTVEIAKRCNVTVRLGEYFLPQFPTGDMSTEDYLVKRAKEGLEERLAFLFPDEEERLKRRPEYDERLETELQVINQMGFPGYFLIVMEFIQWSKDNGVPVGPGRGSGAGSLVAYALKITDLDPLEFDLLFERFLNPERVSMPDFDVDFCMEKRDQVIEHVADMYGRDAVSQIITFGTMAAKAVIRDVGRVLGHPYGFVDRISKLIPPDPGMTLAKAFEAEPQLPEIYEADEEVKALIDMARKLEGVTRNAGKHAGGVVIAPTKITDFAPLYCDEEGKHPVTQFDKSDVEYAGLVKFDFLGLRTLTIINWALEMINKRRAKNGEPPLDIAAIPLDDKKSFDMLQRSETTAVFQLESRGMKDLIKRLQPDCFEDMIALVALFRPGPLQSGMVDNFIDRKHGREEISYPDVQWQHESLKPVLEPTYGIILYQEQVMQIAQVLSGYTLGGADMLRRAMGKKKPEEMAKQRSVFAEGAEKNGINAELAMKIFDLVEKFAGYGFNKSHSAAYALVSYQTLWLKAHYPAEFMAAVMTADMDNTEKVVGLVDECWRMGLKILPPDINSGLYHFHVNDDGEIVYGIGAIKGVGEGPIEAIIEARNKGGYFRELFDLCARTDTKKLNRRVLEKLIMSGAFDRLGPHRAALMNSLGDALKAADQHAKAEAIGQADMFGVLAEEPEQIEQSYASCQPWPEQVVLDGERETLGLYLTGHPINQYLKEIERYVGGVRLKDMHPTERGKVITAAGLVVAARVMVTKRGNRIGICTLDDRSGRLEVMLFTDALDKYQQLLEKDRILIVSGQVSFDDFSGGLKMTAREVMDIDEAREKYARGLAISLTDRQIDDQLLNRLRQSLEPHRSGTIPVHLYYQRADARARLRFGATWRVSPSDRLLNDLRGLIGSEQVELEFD

| Structure (SMILES) | IC50 ([2]; E. coli DnaE IC50) [µM] | IC50 ([4]; S. aureus DnaE IC50) [µM] | MIC [1, 6] [µg/mL] | MIC [3] [µg/mL] | IC50 [4, 7] [µM] | MIC [5] [µg/mL] | MIC [1, 8] [µg/mL] | also measured |
| --- | --- | --- | --- | --- | --- | --- | --- | --- |
| CO[C@H]1CC2C=C[C@H]3[C@H]4O[C@]2(/C(C)=C/[C@@H](C)[C@@H]([C@@H](C)OC(=O)OC2CCC(O)CC2)OC1=O)[C@@H]3[C@H](O)[C@@H](C)[C@H]4OC(=O)c1ccc[nH]1 (single isomer, unassigned) [Example 35] | – | – | – | – | – | – | – | S. pneumoniae MB2883 (MIC) ([1]; Isosensitest broth, * = some reduction of growth versus control at […]): 64 µg/mL; IC50 ([2]; read-out: E. coli DnaE IC50 (converted)): > 76 µM; E. coli LS883 tolC (MIC) ([3]; MHII broth): 32 µg/mL; IC50 ([4]; read-out: S. aureus DnaE IC50): 0.0106 µM; P. aeruginosa MB5890 efflux-del (MIC) ([5]; MHII broth): >128 µg/mL |
| CCCNC(=O)O[C@H](C)[C@H]1OC(=O)[C@@H](OC)C[C@H]2C=C[C@H]3[C@H]4O[C@]2(/C(C)=C/[C@H]1C)[C@@H]3[C@H](O)[C@@H](C)[C@H]4OC(=O)c1ccc[nH]1 [Example 2, (3R,4S,7S,8aS,10aR,11R,12R,13R,14R,14aS,14bS,E)-14-hydroxy-7-methoxy-1,3,13-trimethyl-6-oxo-4-((R)-1-((propylcarbamoyl)oxy)ethyl)-3 ,4,6,7,8,8a,10a,11,12,13,14,14a-dodecahydro-11,14b-epoxynaphtho[2,1-e]oxecin-12-yl 1H-pyrrole-2-carboxylate] | 51.6 | 0.035 | – | – | – | – | – | – |
| CO[C@H]1CC2C=C[C@H]3[C@H]4O[C@]2(/C(C)=C/[C@@H](C)[C@@H]([C@@H](C)OC(=O)NC(CO)(CO)CO)OC1=O)[C@@H]3[C@H](O)[C@@H](C)[C@H]4OC(=O)c1ccc[nH]1 (some centres unmarked) [Example 22] | > 151 | – | 64 (≈ 96.6 µM) | 4 (≈ 6.04 µM) | < 0.00905 | 64 (≈ 96.6 µM) | – | – |
| CO[C@H]1CC2C=C[C@H]3[C@H]4O[C@]2(/C(C)=C/[C@@H](C)[C@@H]([C@@H](C)OC(=O)OCCCO)OC1=O)[C@@H]3[C@H](O)[C@@H](C)[C@H]4OC(=O)c1ccc[nH]1 (stereo partly drawn) [Example 26, (3R,4S,7S,10aR,11R,12R,13R,14R,14aS,14bS,E)-14-hydroxy-4-((R)-1-(((3-hydroxypropoxy)carbonyl)oxy)ethyl)-7-methoxy-1,3,13-trimethyl-6-oxo-3,4,6,7,8,8a,10a,11,12,13,14,14a-dodecahydro-11,14b-epoxynaphtho[2,1-e]oxecin-12-yl 1H-pyrrole-2-carboxylate] | 130 | < 0.00971 | – | – | – | – | – | – |
| CCOC(=O)O[C@H](C)[C@H]1OC(=O)[C@@H](OC)CC2C=C[C@H]3[C@H]4O[C@]2(/C(C)=C/[C@H]1C)[C@@H]3[C@H](O)[C@@H](C)[C@H]4OC(=O)c1ccc[nH]1 (some centres unmarked) [Example 29] | 76.6 | – | 16 (≈ 27.2 µM) | 8 (≈ 13.6 µM) | < 0.0102 | > 128 | – | – |
| CO[C@H]1C[C@H]2C=C[C@H]3[C@H]4O[C@]2(/C(C)=C/[C@@H](C)[C@@H]([C@@H](C)OC(=O)CBr)OC1=O)[C@@H]3[C@H](O)[C@@H](C)[C@H]4OC(=O)c1ccc[nH]1 [Example 56, (3R,4S,7S,8aS,10aR,11R,12R,13R,14R,14aS,14bS,E)-4-((R)-1-(2-bromoacetoxy)ethyl)-14-hydroxy-7-methoxy-1,3,13-trimethyl-6-oxo-3,4,6,7,8,8a,10a,11,12,13,14,14a-dodecahydro-11,14b-epoxynaphtho[2,1-e]oxecin-12-yl 1H-pyrrole-2-carboxylate] | 48.7 | < 0.00943 | – | – | – | – | – | – |
| CO[C@H]1C[C@H]2C=C[C@H]3[C@H]4O[C@]2(/C(C)=C/[C@@H](C)[C@@H]([C@@H](C)OCSC)OC1=O)[C@@H]3C(=O)[C@@H](C)[C@H]4OC(=O)c1ccc[nH]1 [Example 58] | 36.6 | – | – | > 8 | > 174 | > 128 | > 128 | – |
| CCN[C@H]1[C@H](C)[C@@H](O)[C@@H]2[C@H]3C=C[C@@H]4C[C@H](OC)C(=O)O[C@H]([C@@H](C)O)[C@H](C)/C=C(\C)[C@@]24O[C@H]31 [Example 147, (3R,4S,7S,8aS,10aR,11R,12S,13S,14R,14aS,14bS,E)-12-(ethylamino)-14-hydroxy-4-((R)-1-hydroxyethyl)-7-methoxy-1,3,13-trimethyl-3,4,8,8a,10a,11,12,13,14,14a-decahydro-11,14b-epoxynaphtho[2,1-e]oxecin-6(7H)-one] | > 222 | – | – | > 128 | 0.667 | > 128 | > 128 | – |
| CO[C@H]1C[C@H]2C=C[C@H]3[C@H]4O[C@]2(/C(C)=C/[C@@H](C)[C@@H]([C@@H](C)O)OC1=O)[C@@H]3[C@H](O)[C@@H](C)[C@@H]4N1CCCC1 [Example 161, (3R,4S,7S,8aS,10aR,11R,12S,13S,14R,14aS,14bS,E)-14-hydroxy-4-((R)-1-hydroxyethyl)-7-methoxy-1,3,13-trimethyl-12-(pyrrolidin-1-yl)-3,4,8,8a,10a,11,12,13,14,14a-decahydro-11,14b-epoxynaphtho[2,1-e]oxecin-6(7H)-one] | > 105 | – | > 64 | > 64 | 46.3 | > 64 | – | – |
| CO[C@H]1C[C@H]2C=C[C@H]3[C@H]4O[C@]2(/C(C)=C/[C@@H](C)[C@@H]([C@H](C)N2C(=O)c5ccccc5C2=O)OC1=O)[C@@H]3[C@H](O)[C@@H](C)[C@H]4OC(=O)c1ccc[nH]1 [Example 172] | 63.6 | – | – | 16 (≈ 24.8 µM) | ~0.00776 | > 128 | > 128 | – |
